The values that follow come from ChEMBL document CHEMBL5257119, “New insight into the bioactivity of substituted benzimidazole derivatives: Repurposing from anti-HIV activity to cell migration inhibition targeting hnRNP M” (Bioorg Med Chem, 2023).

Structures are written as SMILES. Active and inactive are the calls of the source. No cut-off for these calls is given here.

Test [1] has as its system A549. In words: Antimigratory activity against TGFbeta-stimulated human A549 cells assessed as inhibition of cell migration at 20 uM measured for 1 day by cell scratch assay. The class given is functional, cell-based.
The subject of test [2] is A549. Description: Cytotoxicity against human A549 cells assessed as reduction in cell growth at 20 uM measured for 2 days by MTT assay. The class given is functional, cell-based. Particulars: time 2.0 day. A general note: Formazan colour is commonly taken as a measure of viable cells.
Test [3] deals with A549. Description: Antimigratory activity against TGFbeta-stimulated human A549 cells assessed as inhibition of cell migration at 10 uM measured for 1 day by cell scratch assay. Format: functional, cell-based.
The target of test [4] is T1, Heterogeneous nuclear ribonucleoprotein M (Homo sapiens) (UniProt P52272).
T1 sequence (whole entry): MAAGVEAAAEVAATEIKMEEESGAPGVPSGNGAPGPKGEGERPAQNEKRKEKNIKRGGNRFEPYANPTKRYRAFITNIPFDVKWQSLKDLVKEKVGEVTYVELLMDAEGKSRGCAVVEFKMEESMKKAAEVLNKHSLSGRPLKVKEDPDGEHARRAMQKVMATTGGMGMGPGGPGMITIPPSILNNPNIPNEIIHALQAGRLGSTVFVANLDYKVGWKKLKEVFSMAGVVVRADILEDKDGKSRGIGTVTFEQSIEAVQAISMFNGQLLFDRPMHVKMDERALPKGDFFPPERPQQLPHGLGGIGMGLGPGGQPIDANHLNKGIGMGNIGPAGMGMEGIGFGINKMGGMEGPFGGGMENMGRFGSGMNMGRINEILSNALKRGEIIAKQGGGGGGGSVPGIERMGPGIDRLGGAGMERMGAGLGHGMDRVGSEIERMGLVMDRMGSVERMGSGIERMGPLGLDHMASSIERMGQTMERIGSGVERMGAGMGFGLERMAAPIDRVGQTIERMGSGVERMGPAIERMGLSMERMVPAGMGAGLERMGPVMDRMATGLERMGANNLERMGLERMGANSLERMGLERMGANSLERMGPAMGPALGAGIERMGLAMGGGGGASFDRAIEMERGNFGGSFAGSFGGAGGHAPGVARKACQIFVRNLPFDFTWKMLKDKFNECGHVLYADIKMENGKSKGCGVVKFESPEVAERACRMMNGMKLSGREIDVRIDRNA
In words: Competitive inhibition of hnRNP M to in human A549 cells at 50 uM by immunoblotting analysis. The class given is cell-based. For orientation: Immunoblotting shows a protein as a band on a membrane.

Test [5] deals with A549. Description: Antimigratory activity against TGFbeta-stimulated human A549 cells assessed as inhibition of cell migration measured for 1 day by cell scratch assay. The class given is functional, cell-based.
For test [6], the system named is A549. In words: Downregulation of E-cadherin mRNA expression in human A549 cells at 20 uM measured for 1 day bt RT-qPCR analysis. The class given is functional, cell-based. (In general: Real-time PCR tracks product formation cycle by cycle.)
The test system of test [7] is A549. In words: Downregulation of CD44 mRNA expression in human A549 cells at 20 uM measured for 1 day bt RT-qPCR analysis. Format: functional, cell-based.
Test [8] concerns A549. Description: Downregulation of Vimentin mRNA expression in human A549 cells at 20 uM measured for 1 day bt RT-qPCR analysis. The class given is functional, cell-based.
For test [9], the system named is A549. In words: Antimigratory activity against TGFbeta-stimulated human A549 cells assessed as inhibition of cell migration at 1 uM measured for 1 day by cell scratch assay. The class given is functional, cell-based.
Test [10] has as its system A549. In words: Downregulation of Zeb 1 mRNA expression in human A549 cells at 20 uM measured for 1 day bt RT-qPCR analysis. Format: functional, cell-based.

Regarding `N#Cc1ccc(CSc2nc3ccccc3n2-c2ccccc2)cc1`, in test [1], the outcome was Active. The result in test [2] was inactive.

For the molecule `Cc1ccnc(SCc2nc3ccccc3s2)n1`, the outcome in test [3] was Active. In addition, the result in [2] was inactive. Besides, the inhibition result in [4] is “Active”.

Take `c1ccc(CSc2nc3ccccc3n2-c2ccccc2)cc1`: the result in [2] was inactive.

On to `Cc1noc(C)c1CSc1nc2ccccc2n1C`, for which the outcome in test [2] was inactive.

For `COc1ccc(CSc2nc3ccccc3n2-c2ccccc2)cc1`, the outcome in test [2] was inactive.

In the case of `Cc1noc(C)c1CSc1nc2ccccc2n1-c1ccccc1`, the result in test [2] and in test [5] was inactive.

In the case of `Cn1c(SCc2nc3ccccc3s2)nc2ccccc21`, the result in test [2] was inactive.

As to `c1ccc2[nH]c(SCc3nc4ccccc4s3)nc2c1`, the result in [3], in test [1], in [6], in test [7], in test [8] and in test [9] was Active. For the same molecule, in test [2], the result was inactive. In addition, in test [4], the “inhibition call (active/inactive)” value is “Active”.

As for `c1ccc(-n2c(SCc3ccccn3)nc3ccccc32)cc1`, in [2], the outcome was inactive.

Take `Cc1noc(C)c1CSc1nc2ccccc2s1`: the result in test [2] was inactive.

Turning to `Cc1noc(C)c1CSc1nc2ccccc2[nH]1`, the result in test [3], in [1], in [6], in test [7] and in test [8] was Active. In addition, the result in test [2] was inactive. In addition, in test [4], the “inhibition call (active/inactive)” value was “Active”.

On to `c1ccc(-n2c(SCc3nc4ccccc4s3)nc3ccccc32)cc1`, for which the outcome in test [2] was inactive.

For `Cc1noc(C)c1CSc1nc2cc(Cl)c(Cl)cc2[nH]1`, the result in test [3], in test [1], in test [6], in [7], in test [10] and in test [8] was Active. For the same molecule, the outcome in test [2] was inactive. In addition, the “inhibition call (active/inactive)” value in test [4] is “Active”.
